Measured values taken from patent US20250154172A1, “PRMT5 INHIBITORS AND USES THEREOF” (Gilead Sciences, Inc., priority 2023, published 2025).

How the values were obtained:
U-2 OS = assay: Cell viability assay for additional cell lines: U-2 OS; format: cell-based; conditions: Homo sapiens, U2OS, 216 h, 9-day treatment, average of n=2, read-out: MTAP-WT GI50
Experimental: Some Compounds of the Disclosure were tested in Calu-6 (Vendor: ATCC; Cat #HTB-56; Description: lung, adenocarcinoma), LU99 (Vendor: JCRB; Cat #JCRB0080; Description: non-small cell lung cancer), SW780 (Vendor: ATCC; Cat #CRL-2169; Description: bladder urothelial carcinoma), BxPC-3 (Vendor: ATCC; Cat #CRL-1687; Description: pancreatic adenocarcinoma), Panc-1 (Vendor: ATCC; Cat #CRL-1469 Description: pancreatic adenocarcinoma), AsPC-1 (Vendor: ATCC; Cat #CRL-1682; Description: pancreatic adenocarcinoma), Calu-6 (Vendor: ATCC; Cat #HTB-56; Description: non-small cell lung cancer), and U-2 OS (Vendor: ATCC; Cat #HTB-96; Description: osteosarcoma), cellular viability assays according to the general protocol. Seeded cells into 96-well plate and incubated overnight. Seeded an additional 10 wells per cell line in an additional 96-well plate for assessing Time Zero luminescence and incubated overnight. To treatment plates, added compounds into each well using Tecan D300e dispenser (nine three-fold dilutions starting at 10 μM) and incubated for 9 days. Time Zero (no compound treatment, luminescence assessed on day 1) and 9-day treatment (luminescence assessed on day 10) plates were assessed using the same CellTiter-Glo® substrate protocol. […] Recorded luminescence with Perkin Elmer Envision 2105 machine. Analyzed the data with GraphPad software. […]

[1] = Hepatocyte stability assay; format: in vitro ADME; conditions: Rat hepatocytes; 1 μM substrate
Experimental: BioreclamationIVT (Baltimore, MD) provided the cryopreserved hepatocytes, hepatocyte thawing (HT) medium, and Krebs-Henseleit buffer (KHB) medium. The stock solution concentration was 1 M in DMSO and was then diluted further in acetonitrile/water (1:1 v/v). All other chemicals were purchased from Sigma-Aldrich (St. Louis, MO) or Thermo Fisher Scientific (Waltham, MA).
The quench solution used to stop reactions in the hepatocyte incubations was comprised of 100% (v/v) acetonitrile. Internal Standard/Quench (IS/Q) solution used to stop reactions with the positive control also contained 200 nM Labetalol.
Metabolic Stability in Cryopreserved Hepatocytes: Test compounds, or the positive control metabolic substrate, was incubated in suspensions of cryopreserved hepatocytes at a final concentration of 1 μM. Vials containing cryopreserved hepatocytes were removed from liquid nitrogen and immediately immersed in a 37° C. water bath. The vials were swirled gently until the contents had thawed. […] The viabilities of all cell preparations were >85%, assessed by Trypan blue dye exclusion.
For incubations, aliquots of hepatocyte suspension (250 μL containing a cell concentration of 2×10^6 cells/mL) were added to 250 μL of 2 μM substrate (test compound or positive control) in supplemented KHB in duplicate wells in a 24-well plate. […] Samples were injected and analyzed with methods described below. […]

LU99 = assay: Cell viability assay for additional cell lines: LU99; format: cell-based; conditions: for GI50: Homo sapiens, Lu-99, 216 h, 9-day treatment, average of n=2, read-out: MTAP-Deleted GI50
Experimental: Some Compounds of the Disclosure were tested in Calu-6 (Vendor: ATCC; Cat #HTB-56; Description: lung, adenocarcinoma), LU99 (Vendor: JCRB; Cat #JCRB0080; Description: non-small cell lung cancer), SW780 (Vendor: ATCC; Cat #CRL-2169; Description: bladder urothelial carcinoma), BxPC-3 (Vendor: ATCC; Cat #CRL-1687; Description: pancreatic adenocarcinoma), Panc-1 (Vendor: ATCC; Cat #CRL-1469 Description: pancreatic adenocarcinoma), AsPC-1 (Vendor: ATCC; Cat #CRL-1682; Description: pancreatic adenocarcinoma), Calu-6 (Vendor: ATCC; Cat #HTB-56; Description: non-small cell lung cancer), and U-2 OS (Vendor: ATCC; Cat #HTB-96; Description: osteosarcoma), cellular viability assays according to the general protocol. Seeded cells into 96-well plate and incubated overnight. Seeded an additional 10 wells per cell line in an additional 96-well plate for assessing Time Zero luminescence and incubated overnight. To treatment plates, added compounds into each well using Tecan D300e dispenser (nine three-fold dilutions starting at 10 μM) and incubated for 9 days. Time Zero (no compound treatment, luminescence assessed on day 1) and 9-day treatment (luminescence assessed on day 10) plates were assessed using the same CellTiter-Glo® substrate protocol. Thawed CellTiter-Glo® Buffer and lyophilized CellTiter-Glo® substrate and equilibrated to room temperature prior to use. The DMSO concentration was normalized to 0.137%. Transferred 100 ml CellTiter-Glo® Buffer into amber bottle containing CellTiter-Glo® substrate to reconstitute the lyophilized enzyme/substrate mixture. For Time Zero and 9-day treatment plates, removed all plating media. Added 100 μl fresh media/well. Added 100 μl CellTiter-Glo® Reagent per well. Mixed contents for 10 min on an orbital shaker to lyse cells. Recorded luminescence with Perkin Elmer Envision 2105 machine. Analyzed the data with GraphPad software. Potency fold difference is defined as GI50 (AMG193)/GI50 (Ca-47) for the MTAP^del cell line of interest. The structure of AMG193 is as follows.

| SMILES | GI50 (U-2 OS) [µM] | Predicted Hepatocyte CL [1] [L/h/kg] | GI50 (LU99) [nM] | Potency fold difference (LU99; GI50 (AMG193)/GI50 (Ca-47)) |
| --- | --- | --- | --- | --- |
| Nc1nc2cnc(C(=O)N3CCOC[C@@H]3c3ccc(C(F)(F)F)cc3)cc2c2c1COC2 [AMG193, reference compound] | 9.36 | 2.46 | 45 | – |
| Nc1nc2cnc(C(=O)N3CCC[C@@H]4Oc5cc(C(F)(F)F)cc(F)c5[C@@H]43)cc2c2c1COC2 [Example Ca-47, (4-amino-1,3-dihydrofuro[3,4-c][1,7]naphthyridin-8-yl)((4aS,9bS)-9-fluoro-7-(trifluoromethyl)-3,4,4a,9b-tetrahydrobenzofuro[3,2-b]pyridin-1(2H)-yl)methanone] | 2.3 | 2.53 | 9 | 5 |
